The source of these data is ChEMBL document CHEMBL5523719, “Structure-activity relationship study of new carbazole sulfonamide derivatives as anticancer agents with dual-target mechanism” (Eur J Med Chem, 2024).

Structures are written as SMILES. The source made the active and inactive calls. No cut-off for these calls is given here.

For assay [1], the system named is MCF7. Briefly: Induction of cell cycle arrest in human MCF7 cells assessed as accumulation of cells at G0/G1 phase at 4 nM measured after 24 hrs by flow cytometry (reference value: 61.73%). It is filed as functional. On the technique in general: Flow cytometry measures light scatter and fluorescence of single cells or particles in a stream.
For another assay, the system named is NCI-H460. Briefly: Antiproliferation activity against human NCI-H460 cells measured after 72 hrs incubation by MTT assay. It is filed as functional, cell-based. The following applies: NCI-H460, 72 h. (Tetrazolium assays rely on reduction of a dye to a coloured formazan, in cell work by metabolically active cells.)
In assay [2] the test system is MCF7. Briefly: Induction of cell cycle arrest in human MCF7 cells assessed as accumulation of cells at G2/M phase at 100 nM measured after 24 hrs by flow cytometry (reference value: 22.84%). The assay is classed as functional.
Assay [3] concerns the target T1, DNA topoisomerase 1 (Homo sapiens) (UniProt P11387).
T1 sequence (whole entry): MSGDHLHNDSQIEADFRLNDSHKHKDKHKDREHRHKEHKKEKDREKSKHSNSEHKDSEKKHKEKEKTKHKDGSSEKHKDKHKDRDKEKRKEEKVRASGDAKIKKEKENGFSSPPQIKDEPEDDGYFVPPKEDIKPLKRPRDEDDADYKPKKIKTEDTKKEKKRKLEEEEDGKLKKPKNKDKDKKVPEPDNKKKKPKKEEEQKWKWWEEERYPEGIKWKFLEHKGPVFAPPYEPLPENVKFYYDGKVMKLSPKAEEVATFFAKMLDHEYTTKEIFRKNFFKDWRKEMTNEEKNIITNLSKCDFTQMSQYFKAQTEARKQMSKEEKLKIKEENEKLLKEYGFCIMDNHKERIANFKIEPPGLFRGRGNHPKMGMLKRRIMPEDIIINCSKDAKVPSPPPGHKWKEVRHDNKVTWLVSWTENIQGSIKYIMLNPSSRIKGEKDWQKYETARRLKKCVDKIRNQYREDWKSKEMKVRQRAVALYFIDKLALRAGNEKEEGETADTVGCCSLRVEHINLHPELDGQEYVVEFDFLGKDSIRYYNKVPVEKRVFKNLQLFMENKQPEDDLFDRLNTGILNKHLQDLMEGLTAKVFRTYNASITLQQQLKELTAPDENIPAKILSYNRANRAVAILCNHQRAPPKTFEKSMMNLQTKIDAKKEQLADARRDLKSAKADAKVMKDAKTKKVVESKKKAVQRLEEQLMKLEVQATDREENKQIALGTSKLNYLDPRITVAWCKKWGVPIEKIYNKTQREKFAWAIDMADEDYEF
Briefly: Inhibition of human DNA topoisomerase 1 assessed as relaxation of supercoiled pBR322 DNA as substrate incubated for 30 mins by gel staining based electrophoresis analysis. The note with it: dose 20-200 µM.

For assay [4], the system named is HMEC-1. The assay can be described thus: Anti-migration activity in human HMEC-1 cells assessed as inhibition of cell migration at 5 nM measured after 48 hrs by Scratching assay. The assay is classed as functional, cell-based.
In assay [5] the target is DNA topoisomerase 2-alpha (Homo sapiens) (UniProt P11388). Briefly: Inhibition of human DNA topoisomerase 2 assessed as relaxation of supercoiled pBR322 DNA as substrate at 200 uM incubated for 30 mins by gel staining based electrophoresis analysis.
Sequence of DNA topoisomerase 2-alpha (Homo sapiens) (P11388 whole entry): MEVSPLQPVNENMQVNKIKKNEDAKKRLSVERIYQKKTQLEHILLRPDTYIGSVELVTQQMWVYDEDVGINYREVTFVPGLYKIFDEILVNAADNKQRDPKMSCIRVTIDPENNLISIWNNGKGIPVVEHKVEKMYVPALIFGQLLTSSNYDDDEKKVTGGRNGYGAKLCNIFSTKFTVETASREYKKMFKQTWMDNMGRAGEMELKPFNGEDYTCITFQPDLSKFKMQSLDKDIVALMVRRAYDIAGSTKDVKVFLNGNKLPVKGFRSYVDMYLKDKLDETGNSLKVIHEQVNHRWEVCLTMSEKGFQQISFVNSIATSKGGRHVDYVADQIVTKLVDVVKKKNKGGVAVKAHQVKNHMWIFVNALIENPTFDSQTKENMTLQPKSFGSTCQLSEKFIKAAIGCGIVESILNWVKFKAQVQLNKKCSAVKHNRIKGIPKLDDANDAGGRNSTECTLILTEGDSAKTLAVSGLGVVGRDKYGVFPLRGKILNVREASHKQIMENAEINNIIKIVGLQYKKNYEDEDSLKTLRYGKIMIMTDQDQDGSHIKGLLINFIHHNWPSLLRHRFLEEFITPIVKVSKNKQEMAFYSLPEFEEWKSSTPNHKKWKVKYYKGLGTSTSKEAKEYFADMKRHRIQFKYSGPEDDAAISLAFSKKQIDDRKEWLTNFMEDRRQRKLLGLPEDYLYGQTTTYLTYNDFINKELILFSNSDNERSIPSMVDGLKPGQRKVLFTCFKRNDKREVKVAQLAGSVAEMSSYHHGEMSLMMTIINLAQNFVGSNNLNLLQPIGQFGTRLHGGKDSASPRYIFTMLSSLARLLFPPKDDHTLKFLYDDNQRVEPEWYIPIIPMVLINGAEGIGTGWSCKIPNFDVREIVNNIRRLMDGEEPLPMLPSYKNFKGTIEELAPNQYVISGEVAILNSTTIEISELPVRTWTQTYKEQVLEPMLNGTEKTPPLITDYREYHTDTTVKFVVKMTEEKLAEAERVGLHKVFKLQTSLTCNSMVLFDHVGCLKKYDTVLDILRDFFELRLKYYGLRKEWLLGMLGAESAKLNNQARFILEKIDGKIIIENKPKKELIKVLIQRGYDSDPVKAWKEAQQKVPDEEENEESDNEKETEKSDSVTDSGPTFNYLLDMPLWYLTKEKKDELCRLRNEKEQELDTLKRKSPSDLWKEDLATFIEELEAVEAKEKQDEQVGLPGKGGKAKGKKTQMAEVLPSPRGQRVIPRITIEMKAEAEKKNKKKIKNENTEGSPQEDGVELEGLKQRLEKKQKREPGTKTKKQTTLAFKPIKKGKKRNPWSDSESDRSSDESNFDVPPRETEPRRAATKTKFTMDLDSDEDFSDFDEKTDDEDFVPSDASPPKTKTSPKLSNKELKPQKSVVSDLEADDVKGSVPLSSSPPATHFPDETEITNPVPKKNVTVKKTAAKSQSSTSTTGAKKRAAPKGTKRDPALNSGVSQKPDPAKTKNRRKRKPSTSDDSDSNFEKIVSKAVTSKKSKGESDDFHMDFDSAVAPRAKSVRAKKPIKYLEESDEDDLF
For a further assay, the system named is L02. The assay can be described thus: Antiproliferation activity against human L02 cells measured after 72 hrs incubation by MTT assay. The assay is classed as functional, cell-based. The following applies: L02, 72 h.
The subject of assay [6] is MCF7. Briefly: Induction of cell cycle arrest in human MCF7 cells assessed as increase in phosphorylation of histone H3 at […] by Western blot analysis. It is filed as functional, cell-based. The following applies: dose lower 12.5 µM. A general note: In western blotting, separated proteins are transferred to a membrane and probed.
For assay [7], the system named is HMEC-1. The assay can be described thus: Anti-proliferative activity against human HMEC-1 cells measured after 48 hrs. It is filed as functional, cell-based. The following applies: HMEC-1, 48 h.
Assay [8] has as its system MCF7. Briefly: Induction of apoptosis in human MCF7 cells assessed as late apoptotic cells at 12.5 nM measured after 48 hrs by AnnexinV/PI double staining assays (reference value: 2.60%). It is filed as functional.
The subject of assay [9] is MCF7. The assay can be described thus: Induction of apoptosis in human MCF7 cells assessed as early apoptotic cells at 12.5 nM measured after 48 hrs by AnnexinV/PI double staining assays (reference value: 5.32%). The assay is classed as functional.

For `COc1cc(NS(=O)(=O)c2ccc3c(c2)c2ccc(N)cc2n3C)c(OC)cc1Cl`, the Activity with MCF7 [1] is 47.57%; in the assay with MCF7 [2], 41.21%; in the assay with MCF7 [6], “Dose-Dependent Effect”; with MCF7 [8], 8.66%; in the assay on MCF7 [9] it was 26.99%. Further, the IC50 was 0.018 µM in the assay with NCI-H460, 0.0185 µM in the assay with L02 and 0.00642 µM in the assay on HMEC-1 [7]. Further, in assay [3], the inhibition entry was “Dose-Dependent Effect”. For the same molecule, the inhibition result in the assay with HMEC-1 [4] was “Active”. In addition, the inhibition entry in [5] is “inactive”.

By IC50 is commonly meant the concentration that gives 50% inhibition. Higher therefore signals weaker potency.
